The text below walks through data of US8633165B2, “Neuroprotective effects of 2DG in traumatic brain injury” (Wisconsin Alumni Research Foundation, priority 2010, dated 2014).

SMILES strings stand for the structures. Entries after “also recorded” stand apart in the source; their conditions may differ.

In series [1] the test system is rats. The settings on record: perforant path and olfactory bulb stimulation in rats; Garriga-Canut et al., 2006; Stafstrom et al., 2009; cited from earlier work.
For series [2], the system named is hippocampal brain slices. To be noted: evoked by 7.5 mM [K+]o, 4-amino-pyridine, bicuculline, DHPG; Stafstrom et al., 2009; cited from earlier work.
The subject of series [3] is rats with TBI induced by CCI in fronto-parietal and temporo-parietal cortex. The experiment in a line: Hippocampal DTI measures (MD, FA laterality index) after TBI induced by CCI. The class given is in vivo, rat. To be noted: for in vivo hippocampal FA laterality index (LRI): fast and slow kindling strains, strain by treatment interaction p=0.088, saline vs 2DG at 1 month p=0.08; for change in in vivo ipsilateral hippocampal MD between 1 week and 6 months: paired t-test: saline p=0.0026, 2DG p=0.289, treatment by time interaction p=0.064. The text has this:
(§1) “Fast” rats and “slow” rats from the 9th-11th generations selected by these procedures were subjected to TBI induced by the method of controlled cortical impact (CCI) using published protocols (see Dixon et al., 1991, J. Neuro. Meth. 39: 253-262). During the induction of TBI by CCI, the rats were deeply anesthetized with isoflurane (3% for induction, 1.5-2.5% for maintenance) and were placed in a stereotaxic frame. After craniotomy with the dura intact, anesthesia was reduced to 1% isoflurane for a 5-min equilibration period and CCI was performed over temporo-parietal cortex (−1 to −6 mm from bregma, below lateral skull ridge) and fronto-parietal cortex (+5.3 to −0.3 mm from bregma, below lateral skull ridge), which are more and less likely, respectively, to damage the hippocampus and amygdala. Brain lesions were induced by a digitally-controlled contusion device using a pneumatically driven impactor with a sterilized rounded stainless steel tip (3-4 mm in diameter) which compresses the cortex with a specified velocity, depth, and dwell time varied to induce a range of injury severity (ranging from mild, with parameters of 4.0 m/s, 1.0 mm deformation, dwell time 50 mS, to severe, at 6.0 m/s, 2.5 mm deformation, dwell time 50 mS). Anesthesia was then administered at maintenance levels (1.5-2.5%), the craniotomy and wound were closed, and the rats were allowed to recover. The location, severity, and progression of induced cortical and subcortical damage was examined by serial in vivo magnetic resonance imaging (MRI) and diffusion tensor imaging (DTI) techniques at 1 week, 1 month, and 6 months after TBI.
(§2) The effects of 2DG on TBI induced by CCI in fronto-parietal and temporo-parietal cortex were evaluated in “fast” kindling-susceptible and “slow” kindling-resistant rats. Half of the rats from these strains received 2DG at 40 mg/kg IP 30 min prior to CCI, and then 250 mg/kg immediately after and twice daily for 2 weeks. These rats were compared to control groups with TBI induced by CCI that were treated only with an equivalent volume of saline. Both treatment groups were also compared to sham-injured rats that underwent all aspects of the experimental manipulations except for CCI.
The effects of 2DG treatment on the location, severity, and progression of induced cortical and subcortical damage were assessed in serial in vivo magnetic resonance imaging (MRI) and diffusion tensor imaging (DTI) studies at 1 week, 1 month, and 6 months after TBI as well as high-resolution ex vivo DTI of brains harvested from the same rats following the final in vivo imaging session. DTI is an advanced MRI modality that offers a unique view of the brain in its ability to report quantitative microstructural information at the whole-brain and in vivo scales. The most commonly reported DTI indices are fractional anisotropy (FA), which characterizes the “directionalness” of tissue structure (e.g. high in white matter and low in grey matter and CSF) and mean diffusion (MD), which characterizes water status (“free” or “restricted”) due to cellular barriers (e.g. high in CSF and low in tissue). Both indices are known to be sensitive to damage and other structural changes such as tissue/circuit reorganization. This makes DTI an attractive modality to investigate disorders with known or hypothesized structural abnormalities such as TBI.
MRI scanning was performed using a Varian 4.7 T scanner and a quadrature birdcage volume coil was used to transmit and receive the MRI signal. […]

The conditions of series [4]: Mattson, 1999; cited from earlier work.
Series [5] has as its system rats with TBI induced by CCI in fronto-parietal and temporo-parietal cortex. The experiment in a line: Corpus callosum and fornix DTI (FA) after TBI induced by CCI. The class given is in vivo, rat. The settings on record: for ex vivo corpus callosum (CC) FA: CCI location by treatment interaction p=0.038, fronto-parietal CCI.
Excerpt: as §1, §2
(§3) The effects of 2DG treatment on the location, severity, and progression of induced cortical and subcortical damage were assessed in serial in vivo magnetic resonance imaging (MRI) and diffusion tensor imaging (DTI) studies at 1 week, 1 month, and 6 months after TBI as well as high-resolution ex vivo DTI of brains harvested from the same rats following the final in vivo imaging session. DTI is an advanced MRI modality that offers a unique view of the brain in its ability to report quantitative microstructural information at the whole-brain and in vivo scales. […]

Series [6] concerns mice. To be noted: Stafstrom et al., 2009; cited from earlier work.
The subject of series [7] is rats. To be noted: rat, in vivo, 250 mg/kg. The method, then: For example, dosage amount and interval of 2-DG administration can be adjusted individually to reduce incidence, frequency, duration or intensity of deleterious sequellae of TBI, particularly PTE, using doses of 40 mg/kg or less to higher as tolerated to reduce seizure frequency and minimize toxicity. […] A practitioner skilled in the art can adjust dosage in the range of 2-250 mg/kg and the timing of administration to produce prolonged neuroprotectant effects. Efficacious dosage amounts can be adjusted in children and adults, for establishing effective dosage levels.

Series [8] has as its system ischemic rat. The settings on record: Combs et al., 1986; cited from earlier work.
Series [9] deals with rats with TBI induced by CCI in fronto-parietal and temporo-parietal cortex. Nature of the series: Lateral ventricle volume by T2W MRI after TBI induced by controlled cortical impact (CCI). To be noted: for proportional change in lateral ventricle volume from 1 week to 1 month following injury: in vivo T2W MRI, 2DG 40 mg/kg IP 30 min prior to CCI, then 250 mg/kg immediately after and twice daily for 2 weeks, change significantly greater for saline than 2DG (p=0.015). The class given is in vivo, rat.
Excerpt: “Fast” rats and “slow” rats from the 9th-11th generations selected by these procedures were subjected to TBI induced by the method of controlled cortical impact (CCI) using published protocols (see Dixon et al., 1991, J. Neuro. Meth. 39: 253-262). During the induction of TBI by CCI, the rats were deeply anesthetized with isoflurane (3% for induction, 1.5-2.5% for maintenance) and were placed in a stereotaxic frame. After craniotomy with the dura intact, anesthesia was reduced to 1% isoflurane for a 5-min equilibration period and CCI was performed over temporo-parietal cortex (−1 to −6 mm from bregma, below lateral skull ridge) and fronto-parietal cortex (+5.3 to −0.3 mm from bregma, below lateral skull ridge), which are more and less likely, respectively, to damage the hippocampus and amygdala. Brain lesions were induced by a digitally-controlled contusion device using a pneumatically driven impactor with a sterilized rounded stainless steel tip (3-4 mm in diameter) which compresses the cortex with a specified velocity, depth, and dwell time varied to induce a range of injury severity (ranging from mild, with parameters of 4.0 m/s, 1.0 mm deformation, dwell time 50 mS, to severe, at 6.0 m/s, 2.5 mm deformation, dwell time 50 mS). […]
The effects of 2DG on TBI induced by CCI in fronto-parietal and temporo-parietal cortex were evaluated in “fast” kindling-susceptible and “slow” kindling-resistant rats. […]
as §3

Take `O=CC[C@@H](O)[C@H](O)[C@H](O)CO` [2DG, 2-deoxy-D-glucose]: in series [1], the “slowing of progression of kindled seizures” value was 2 fold. In addition, the “epileptic discharges evoked in hippocampal brain slices” value in series [2] is “acute in vitro reduction of epileptic discharges”. In [3] (ANOVA main effect for treatment p=0.002, compared with saline and sham-injured controls), the “ex vivo ipsilateral hippocampal MD” value is “restored MD measurements to the range of normal values observed in controls”. The “in vivo hippocampal FA laterality index (LRI)” value was “appeared to abolish the pattern of increased LRI over 1 week to 1 month in both strains” in [3] and “reduces FA LRI in both strains” in series [3] (listed as 2-DG). The “change in in vivo ipsilateral hippocampal MD between 1 week and 6 months” value in series [3] is recorded as “not for the 2DG treated groups”; in [3] (listed as 2-DG), “no significant change”. Besides, the “brain damage initiated by seizures induced by kainic acid” value in series [4] was “reduced brain damage”. Further, the “ex vivo corpus callosum (CC) FA” value in series [5] is on record as “FA was highest for fronto-parietal, 2DG treated rats”; in [5] (listed as 2-DG) it was “reduced in all groups except for 2-DG treated rats with fronto-parietal CCI”. Moreover, the “ex vivo fornix FA” value in series [5] (fronto-parietal CCI vs temporo-parietal CCI, 2-DG vs saline) is on record as “reduced in all groups except for 2-DG treated rats with fronto-parietal CCI”. Further, the “in vivo anterior corpus callosum (aCC) FA, change from one week to six months” value in series [5] (paired t-test: 2DG p=0.0099, saline p=0.8396, treatment by time interaction p=0.073) is “increase in aCC FA by 6 months post-CCI that nearly reaches control values; also recorded: significant change from one week to six months”. The “anticonvulsant activity against seizures evoked by 6 Hz and audiogenic stimulation” value in [6] is reported as “acute in vivo anticonvulsant activity”. Further, the tolerability result in series [7] is “well tolerated”. In addition, in [8], the “brain damage initiated by ischemia” value is “reduced brain damage”. Besides, in series [9] (brains harvested after 6 months, ANOVA treatment main effect p=0.16, strain by treatment interaction p=0.06, greater volumes for saline, most evident in slow-kindled strain), the “ex vivo lateral ventricle volumes” value is “protection from gross tissue loss”. The entries for the “proportional change in lateral ventricle volume from 1 week to 1 month following injury” value in series [9] and in series [9] (listed as 2-DG) were “reduced progressive volumetric changes” and “p<0.05 for the saline but not the 2-DG treated group”, respectively.
